Reference: US8772341B2, “Compositions for the treatment of hoof diseases” (DeLaval Holding AB, priority 2006, dated 2014)

Columns and labels:
S. aureus (ATCC 6538) = assay: modified AOAC sanitizer test (germicidal activity, with or without manure); assay type: cell-based, Staphylococcus aureus
Procedure: (§1) The germicidal activity of a large number of ingredients has been tested for the ability to kill Escherichia coli and Staphylococcus aureus in mixtures that have been contaminated with 10% and 20% manure. E. coli and S. aureus were chosen as representative bacteria for screening purposes. Solutions of the mixtures with 10% manure and bacteria were prepared, and the reduction in the concentration of bacteria was determined after 30 seconds and again after 5 minutes. In addition, the formulas were evaluated for skin irritation based on in vitro test data. The testing method used was that of Wolfgang J. W. Pape, Udo Hoppe: In vitro Methods for the Assessment of Primary Local Effects of Topically Applied Preparations. Skin Pharmacol. (1991), 4: 205-212, which is incorporated herein by reference.
(§2) Experiments were performed to test the germicidal properties of the disclosed compositions using a modified version of the AOAC sanitizer test (Association of Official Analytical Chemists. 1990. Official Methods of Analysis, Pages 138-140 in Germicidal and Detergent Sanitizing Action of Disinfectants 960.09, Vol. I. 15th ed. AOAC, Arlington, Va.). According to this procedure, manure was collected from a dairy farm, dispensed into flasks and autoclaved at 121° C. and 17 psi for 30 minutes. Manure samples were then stored in a freezer until needed. When needed, manure was thawed at room temperature then dispensed into 250 mL Erlenmeyer flasks in amounts appropriate for the challenge desired (10 g for 10% manure, 20 g for 20% manure, etc.). The flasks with manure, and any empty flasks needed, were capped with aluminum foil and autoclaved at 134° C. and ˜20 psi for 4 min.
(§3) Freeze-dried pellets of E. coli (ATCC 11229) and S. aureus (ATCC 6538) were hydrated, placed in test tubes containing nutrient agar and incubated at 37° C. for 24 hours. Sterile buffer (0.0003 M phosphate adjusted to pH 6.6) was used to dilute and transfer the bacteria to additional nutrient agar tubes, which were incubated for another 24 hours. S. aureus was then diluted with buffer and transferred to nutrient agar in French bottles, and E. coli was diluted and transferred to fresh nutrient agar tubes. Both types of bacteria were incubated at 37° C. for 72 hours. E. coli was then diluted and transferred to nutrient agar in French bottles. Sterile buffer and glass beads were added to the S. aureus French bottles and the solution was vacuum filtered through a #2 filter. […] After 24 hours, the E. coli suspension was collected in the same manner.
(§4) Germicide sample solutions were prepared and dispensed into the flasks containing manure. For tests without manure, 99 mL of germicide were added to an empty, sterile, 250 mL flask. […]

E. coli (ATCC 11229) = assay: as above; assay type: cell-based, Escherichia coli
Procedure: as §1, §2, §3, §4

[1] = system: Bovine Digital Dermatitis (BDD) associated treponeme strains; assay: Treponema study, broth microdilution germicidal susceptibility (MIC/MBC); assay type: cell-based; conditions: for MBC (minimal bactericidal concentration): average over six Treponema cultures
Description: In an experiment carried out at the University of Liverpool, Liverpool, U.K., Treponema species were isolated from dairy farms and six cultures were used to measure the minimum inhibitory concentration (MIC, the lowest concentration which results in maintenance or reduction of inoculum's viability) and minimal bactericidal concentration (MBC, the lowest concentration which results in biocidal activity) of several commonly used germicides.
Six Bovine Digital Dermatitis (BDD) associated treponeme strains (Table 1) were used to investigate in vitro susceptibility of BDD associated Treponema (Evans, N. J.; Brown, J.; Demirkan, I.; Carter, S. D.; Hart, C. A. “In vitro susceptibility of Bovine Digital Dermatitis associated Treponema to antimicrobial agents” to be submitted to Antimicrob. Agents Chemother. To be submitted for publication September 2007). The strains included two isolates from each of three distinct phylogroups corresponding to three proposed new taxa, Treponema medium subsp. bovis, Treponema bovis and Treponema pedis (Evans, N. J.; Brown, J.; Demirkan, I. Murray, R. D.; Vink, D.; Blowey, R. W.; Hart, C. A.; Carter, S. D. “Tremponema medium subsp. bovis subsp. nov., Treponema bovis sp. nov. and Treponema pedis sp. nov.; novel spirochaetes associated with Bovine Digital Dermatitis.” International Journal of Systematic and Evolutionary Microbiology. Submitted for publication Oct. 18, 2006). […]
To determine MIC values, absorbance at 540 nm was measured for the microplate wells using a Multiskan microtitre plate reader (Thermo Scientific, Hampshire, U.K.). Measurements were recorded before and after incubation at 36° C. under anaerobic conditions—three days for T. pedis strains and four days for T. bovis and T. medium subsp. bovis strains. […] Cell growth was determined by comparison of the absorbance measurement immediately before and after incubation. […]
Microplates were incubated for a further four days at 36° C. under anaerobic conditions. Growth was assessed using phase contrast microscopy. […]

red blood cells = assay: in vitro irritation test on isolated red blood cells (haemolysis, denaturation); assay type: cell-based, calf; conditions: 18% solution
Procedure: as §1
Irritation tests were performed to determine whether or not the disclosed compositions would be mild enough for topical application. These tests involved two measurements made on fresh calf blood, where red blood cells were isolated by adding 50 mL of sodium citrate buffer (17.03 g trisodium citrate+8.45 g citric acid diluted to 1 L with bacteria-free DI water) to every 450 mL of blood, then repetitively washing with sodium citrate buffer and centrifuging to remove white blood cells and plasma.
Compositions disclosed herein were introduced into a container containing the isolated red blood cells and values for Haemolysis (H50); a Denaturation Index value (DI); and a Lysis/Denaturation Ratio (L/D) were determined using methods disclosed by Wolfgang J. W. Pape, Udo Hoppe: In vitro Methods for the Assessment of Primary Local Effects of Topically Applied Preparations. Skin Pharmacol. (1991), 4: 205-212. The haemolysis—or tendency of the red blood cells to rupture when in contact with the test product—was measured by the half-haemolysis value H50. The denaturation of protein caused by the test product was measured by the denaturation index (DI). The overall irritation value for a product was determined by the ratio of the H50/DI which is referred to as the lysis/denaturation quotient. The overall irritation score is given by the lysis/denaturation value which is calculated by the equation: L/D=H50 (measured in ppm)/DI (measured in %).
The higher the ppm value for H50 the less irritating the product. A crude scale is H50>500 ppm (non-irritant); 120-500 (slight irritant), 30-120 (moderate irritant), 10-30 (irritant) and 0-10 (strong irritant).
The L/D ratio is the primary value used to determine irritation. […]

[2] = system: hoof diseases (heel erosion, interdigital dermatitis, foot rot, white line abscess, digital dermatitis); assay: field trial of hoof bath at a commercial dairy farm; assay type: in vivo, cows; conditions: for Digital Dermatitis, number of hooves / Foot Rot, number of hooves / Heel Erosion, number of hooves / Interdigital Dermatitis, number of hooves / Total number of hoof problems / White Line Abscess, number of hooves: 178 hooves
Procedure: An 18% solution of N,N-bis(3-aminopropyl)dodecylamine with 0.17% FD&C Red #40 and 0.28% FD&C Yellow #5 was tested in a field trial at a commercial dairy farm. The product was diluted at a rate of 1+66 V/V and used to fill a hoof bath trough that the cows walked through as they left the milking parlor. A fresh hoof bath solution was prepared every day and the cows walked through the solution once each day of the week. For a month before the trial began no hoof bath treatment was applied to the cows. At the start of the trial a complete evaluation of the front and hind hooves was performed by a certified hoof trimmer, along with a veterinarian, who recorded the diseases observed in each hoof. The evaluation of the hooves was again performed after the hoof bath had been used for two months. All hooves that were present for both evaluations, and were not were not treated with antibiotics and wrapped at the first evaluation, were included in the data. […] The trial included 178 hooves.

[3] = 18% solution diluted 1+33 with potable water, 5 minutes exposure, 20% manure
[4] = 18% solution diluted 1+66 with potable water (0.27%), 30 seconds exposure, 20% manure
[5] = 18% solution diluted 1+66 with potable water (0.27%), 5 minutes exposure, no manure
[6] = 18% solution diluted 1+180 with potable water (0.1%), 5 minutes exposure, 10% manure
[7] = Primary Evaluation (start of trial, before hoof bath)
[8] = Secondary Evaluation after two months of daily hoof bath, 1+66 V/V

## CCCCCCCCCCCCN(CCCN)CCCN [N,N-bis(3-aminopropyl)dodecylamine]
S. aureus (ATCC 6538); [3]
  log reduction: > 7.94 log
S. aureus (ATCC 6538); [4]
  log reduction: 4.8 log
S. aureus (ATCC 6538); [5]
  log reduction: > 8 log
S. aureus (ATCC 6538); [6]
  log reduction: > 7.94 log
E. coli (ATCC 11229); [3]
  log reduction: > 8.0 log
E. coli (ATCC 11229); [4]
  log reduction: > 8 log
E. coli (ATCC 11229); [5]
  log reduction: > 8 log
E. coli (ATCC 11229); [6]
  log reduction: > 7.97 log
[1]
  MBC (minimal bactericidal concentration): 0.00051 % w/w
Red blood cells
  skin irritation (conclusion from L/D): does not cause skin irritation
Red blood cells; L/D = H50/DI
  combined L/D value (lysis/denaturation ratio): 7×10^3
Red blood cells; calf red blood cells
  DI value (denaturation index): 2.6%
  H50 value (half-haemolysis): 18000 ppm
[2]; [7]
  Digital Dermatitis, number of hooves: 33
  Foot Rot, number of hooves: 0
  Heel Erosion, number of hooves: 43
  Interdigital Dermatitis, number of hooves: 2
  Total number of hoof problems: 78
  White Line Abscess, number of hooves: 0
[2]; [8]
  Digital Dermatitis, number of hooves: 25
  Foot Rot, number of hooves: 0
  Interdigital Dermatitis, number of hooves: 0
  Total number of hoof problems: 51
  White Line Abscess, number of hooves: 1
[2]; Secondary Evaluation after two months of daily hoof bath, 18% solution with dyes diluted 1+66 V/V
  Heel Erosion, number of hooves: 25
[2]; after two months of hoof bath treatment
  reduction in the total number of hoof problems: ~35%
[2]; after two months of treatment
  hooves with digital dermatitis at the beginning of the trial that were cured: Forty
[2]; by the end of the two month treatment
  hooves not infected at the beginning that did not develop any signs of digital dermatitis: ninety

## O=S(=O)([O-])[O-].[Cu+2] [copper sulfate]
[1]
  MBC (minimal bactericidal concentration): 0.0054 % w/w

## C=O [formaldehyde]
[1]; six Treponema cultures
  average MEC: 0.0094 % w/w
